# PubChem BioAssay (NCI)
#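 The concentration for 50% growth inhibition is given as GI50. Definition used: TGI = concentration required for complete inhibition of growth.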
# Columns and labels:
# Experiment in all cases: NCI tumour cell line growth inhibition, 384-well format
# SK-MEL-5 melanoma = system: SK-MEL-5 melanoma
# UACC-257 melanoma = system: UACC-257 melanoma
# NCI-H226 lung = system: NCI-H226 lung
# BT-549 breast = system: BT-549 breast
# SK-OV-3 ovarian = system: SK-OV-3 ovarian
# OVCAR-5 ovarian = system: OVCAR-5 ovarian
# NCI-H23 lung = system: NCI-H23 lung
# COLO 205 colon = system: COLO 205 colon
# PC-3 prostate = system: PC-3 prostate
# SF-295 CNS = system: SF-295 CNS
# EKVX NSCLC = system: EKVX NSCLC
# DU-145 prostate = system: DU-145 prostate
# SF-268 CNS = system: SF-268 CNS
# CCRF-CEM leukemia = system: CCRF-CEM leukemia
# CAKI-1 renal = system: CAKI-1 renal
# SW-620 colon = system: SW-620 colon
# SK-MEL-28 melanoma = system: SK-MEL-28 melanoma
# NCI-H522 lung = system: NCI-H522 lung
# MDA-MB-231 breast = system: MDA-MB-231 breast
# KM12 colon = system: KM12 colon
# NCI/ADR-RES ovarian = system: NCI/ADR-RES ovarian
# NCI-H460 NSCLC = system: NCI-H460 NSCLC
# MCF7 breast = system: MCF7 breast
# UO-31 renal = system: UO-31 renal
# HT29 colon = system: HT29 colon
# MDA-MB-435 melanoma = system: MDA-MB-435 melanoma
# ACHN renal = system: ACHN renal
# NCI-H322M lung = system: NCI-H322M lung
# SNB-19 CNS = system: SNB-19 CNS
# A498 renal = system: A498 renal
# MOLT-4 leukemia = system: MOLT-4 leukemia
# SF-539 CNS = system: SF-539 CNS
# SN12C renal = system: SN12C renal
# OVCAR-4 ovarian = system: OVCAR-4 ovarian
# OVCAR-8 ovarian = system: OVCAR-8 ovarian
# TK-10 renal = system: TK-10 renal
# K-562 leukemia = system: K-562 leukemia
# LOX IMVI melanoma = system: LOX IMVI melanoma
# SR leukemia = system: SR leukemia
# 786-0 renal = system: 786-0 renal
# HCC-2998 colon = system: HCC-2998 colon
# RXF 393 renal = system: RXF 393 renal
# IGROV1 ovarian = system: IGROV1 ovarian
# MALME-3M melanoma = system: MALME-3M melanoma
# A549 NSCLC = system: A549 NSCLC
# M14 melanoma = system: M14 melanoma
# UACC-62 melanoma = system: UACC-62 melanoma
# T-47D breast = system: T-47D breast
# HL-60(TB) leukemia = system: HL-60(TB) leukemia
# HS 578T breast = system: HS 578T breast
# HOP-62 NSCLC = system: HOP-62 NSCLC
# OVCAR-3 ovarian = system: OVCAR-3 ovarian
# MDA-MB-468 breast = system: MDA-MB-468 breast
# SNB-75 CNS = system: SNB-75 CNS
# RPMI-8226 leukemia = system: RPMI-8226 leukemia
# HOP-92 NSCLC = system: HOP-92 NSCLC
# HCT-15 colon = system: HCT-15 colon
structure (smiles),measurement,setting,value
C=CC(=O)N1CCC(c2ccc(C(N)=O)c(-c3ccc(Oc4ccccc4)cc3)n2)CC1,GI50,SK-MEL-5 melanoma,18 µM
same,TGI,SK-MEL-5 melanoma,35.8 µM
same,GI50,UACC-257 melanoma,18.3 µM
same,TGI,UACC-257 melanoma,42.1 µM
same,GI50,NCI-H226 lung,22.7 µM
same,TGI,NCI-H226 lung,72.4 µM
same,GI50,BT-549 breast,17.9 µM
same,TGI,BT-549 breast,41.8 µM
same,GI50,SK-OV-3 ovarian,26.9 µM
same,TGI,SK-OV-3 ovarian,> 100 µM
same,GI50,OVCAR-5 ovarian,> 100 µM
same,TGI,OVCAR-5 ovarian,> 100 µM
same,GI50,NCI-H23 lung,28.3 µM
same,TGI,NCI-H23 lung,> 100 µM
same,GI50,COLO 205 colon,89.8 µM
same,TGI,COLO 205 colon,> 100 µM
same,GI50,PC-3 prostate,41.2 µM
same,TGI,PC-3 prostate,> 100 µM
same,GI50,SF-295 CNS,41.1 µM
same,TGI,SF-295 CNS,> 100 µM
same,GI50,EKVX NSCLC,22.6 µM
same,TGI,EKVX NSCLC,84.1 µM
same,GI50,DU-145 prostate,24.7 µM
same,TGI,DU-145 prostate,79.9 µM
same,GI50,SF-268 CNS,35.3 µM
same,TGI,SF-268 CNS,> 100 µM
same,GI50,CCRF-CEM leukemia,17.4 µM
same,TGI,CCRF-CEM leukemia,34.2 µM
same,GI50,CAKI-1 renal,23.5 µM
same,TGI,CAKI-1 renal,> 100 µM
same,GI50,SW-620 colon,32.9 µM
same,TGI,SW-620 colon,84.9 µM
same,GI50,SK-MEL-28 melanoma,95.1 µM
same,TGI,SK-MEL-28 melanoma,> 100 µM
same,GI50,NCI-H522 lung,12.2 µM
same,TGI,NCI-H522 lung,30.7 µM
same,GI50,MDA-MB-231 breast,30.8 µM
same,TGI,MDA-MB-231 breast,> 100 µM
same,GI50,KM12 colon,37.3 µM
same,TGI,KM12 colon,> 100 µM
same,GI50,NCI/ADR-RES ovarian,16.6 µM
same,TGI,NCI/ADR-RES ovarian,37.2 µM
same,GI50,NCI-H460 NSCLC,27.4 µM
same,TGI,NCI-H460 NSCLC,71.5 µM
same,GI50,MCF7 breast,28.6 µM
same,TGI,MCF7 breast,> 100 µM
same,GI50,UO-31 renal,74.1 µM
same,TGI,UO-31 renal,> 100 µM
same,GI50,HT29 colon,59.6 µM
same,TGI,HT29 colon,> 100 µM
same,GI50,MDA-MB-435 melanoma,38.7 µM
same,TGI,MDA-MB-435 melanoma,> 100 µM
same,GI50,ACHN renal,32.4 µM
same,TGI,ACHN renal,> 100 µM
same,GI50,NCI-H322M lung,25.3 µM
same,TGI,NCI-H322M lung,> 100 µM
same,GI50,SNB-19 CNS,39.7 µM
same,TGI,SNB-19 CNS,> 100 µM
same,GI50,A498 renal,21.3 µM
same,TGI,A498 renal,69.9 µM
same,GI50,MOLT-4 leukemia,12.7 µM
same,TGI,MOLT-4 leukemia,25.7 µM
same,GI50,SF-539 CNS,27 µM
same,TGI,SF-539 CNS,78.5 µM
same,GI50,SN12C renal,33.1 µM
same,TGI,SN12C renal,> 100 µM
same,GI50,OVCAR-4 ovarian,25.7 µM
same,TGI,OVCAR-4 ovarian,69.7 µM
same,GI50,OVCAR-8 ovarian,23.8 µM
same,TGI,OVCAR-8 ovarian,66.1 µM
same,GI50,TK-10 renal,25.2 µM
same,TGI,TK-10 renal,81.4 µM
same,GI50,K-562 leukemia,28.8 µM
same,TGI,K-562 leukemia,> 100 µM
same,GI50,LOX IMVI melanoma,25.1 µM
same,TGI,LOX IMVI melanoma,62.9 µM
same,GI50,SR leukemia,11.7 µM
same,TGI,SR leukemia,26.7 µM
same,GI50,786-0 renal,29.2 µM
same,TGI,786-0 renal,> 100 µM
same,GI50,HCC-2998 colon,29.5 µM
same,TGI,HCC-2998 colon,90.3 µM
same,GI50,RXF 393 renal,24.9 µM
same,TGI,RXF 393 renal,73.5 µM
same,GI50,IGROV1 ovarian,21.3 µM
same,TGI,IGROV1 ovarian,56 µM
same,GI50,MALME-3M melanoma,29.7 µM
same,TGI,MALME-3M melanoma,83.4 µM
same,GI50,A549 NSCLC,34.8 µM
same,TGI,A549 NSCLC,> 100 µM
same,GI50,M14 melanoma,33.9 µM
same,TGI,M14 melanoma,> 100 µM
same,GI50,UACC-62 melanoma,40.4 µM
same,TGI,UACC-62 melanoma,> 100 µM
same,GI50,T-47D breast,16.9 µM
same,TGI,T-47D breast,87.2 µM
same,GI50,HL-60(TB) leukemia,15 µM
same,TGI,HL-60(TB) leukemia,28.3 µM
same,GI50,HS 578T breast,21.1 µM
same,TGI,HS 578T breast,58.9 µM
same,GI50,HOP-62 NSCLC,25.4 µM
same,TGI,HOP-62 NSCLC,83.7 µM
same,GI50,OVCAR-3 ovarian,27.1 µM
same,TGI,OVCAR-3 ovarian,66.5 µM
same,GI50,MDA-MB-468 breast,3.99 µM
same,TGI,MDA-MB-468 breast,10.2 µM
same,GI50,SNB-75 CNS,37.6 µM
same,TGI,SNB-75 CNS,> 100 µM
same,GI50,RPMI-8226 leukemia,15.1 µM
same,TGI,RPMI-8226 leukemia,29.3 µM
same,GI50,HOP-92 NSCLC,20 µM
same,TGI,HOP-92 NSCLC,91 µM
same,GI50,HCT-15 colon,30.6 µM
same,TGI,HCT-15 colon,> 100 µM
